# Test results as given in US4318916A, “Antibiotic PS-5 and derivatives having β-lactamase inhibitory activity and production thereof” (Sanraku-Ocean Co., Ltd., priority 1977, dated 1982).
# Assays:
# [1] = test system: Enterobacter cloacae E-16; assay: MIC by broth dilution (Table 13); format: cell-based; details: E16, 20 h
# Method: (§1) The MIC (minimum inhibitory concentration) values of the compound were determined on various pathogenic microorganisms including several resistant strains, utilizing the broth dilution method in BRAIN HEART INFUSION BROTH `Eiken` (EIKEN CHEMICAL CO., LTD.).
# (§2) The results were read after incubation at 35° C. for 20 hours. The minimum inhibitory concentration (MIC) values means the lowest concentration unit of the tritylation product of the antibiotic PS-5 was no growth of the corresponding microorganism was observed under the above described conditions. As the control antibiotics,the solutions of ampicillin and cephaloridine were prepared in BRAIN HEART INFUSION BROTH `Eiken` (pH 7.0) at a concentration of 100 μg/ml and treated same as the test compound of the present invention.
# Serratia marcescens S-18 = assay: MIC by broth dilution (Table 13); format: cell-based; details: S18, 20 h
# Method: as §1, §2
# [2] = test system: Enterobacter aerogenes E-19; assay: MIC by broth dilution (Table 13); format: cell-based; details: Klebsiella aerogenes, E19, 20 h
# Method: as §1, §2
# [3] = Solubility of trityl ester of antibiotic PS-5; format: physicochemical
# Method: The solubility of the tritylation product of the antibiotic PS-5 was determined by dissolving under […] 5 mg each of the tritylation product of the antibiotic PS-5 in 0.1 ml each of the test solvents at 20° C.
# [4] = pH and heat stability of antibiotic PS-5 in aqueous solution; format: physicochemical; details: phosphate buffer, yellowish brown powder of Example 5
# Method: Phosphate buffer solutions of the indicated pH's were made by adjusting M/15 dipotassium phosphate to a desired pH with 5 N NaOH or 5 N phosphoric acid. To 1 milliliter of the antibiotic PS-5 solution, 1 milliliter of the phosphate buffer was added and, if necessary, the pH value was readjusted to the initial value. The antibiotic PS-5 solutions with varied pH's were kept at 60° C. for 30 minutes in a water bath, cooled in running water and neutralized to pH 7.0 with a small amount of 5 N NaOH or 5 N phosphoric acid. The control tube containing the antibiotic PS-5 solution of pH 7.0 was put in an ice bath for 30 minutes. The remaining antimicrobial activity was determined as described above, utilizing Comamonas terrigena B-996 as the assay microorganism. The results shown in the following table were calculated as percent of the control: […]
# Proteus vulgaris P-5 = assay: Potentiation disc assay with cephaloridine (Table 10); format: cell-based; details: Proteus vulgaris P-5; for Inhibition zone With CER: 50 μg/ml cephaloridine in agar
# Method: (§3) (A) Ten milliliters of molten nutrient agar containing 50 μg/ml of penicillin G or cephaloridine, 0.8% of Kyokuto Nutrient Broth Powder and 1.0% of Difco Bacto-Agar (pH 7.0) were seeded with the beta-lactam-resistant, beta-lactamase-producing microorganisms indicated in Tables 9 and 10, and poured in a 9-cm Petri dish to provide the bio-assay agar plate. On this assay plate, 8-mm pulp discs containing 25 μl each of antibiotic PS-5 solutions at the indicated concentrations were placed and incubated at 35° C. for 18 hours before reading the inhibition zones. The control assay plate was similarly prepared without penicillin G nor cephaloridine. As reference antibiotics, penicillin G, ampicillin, oxacillin and cefazolin were disc-assayed under the same conditions.
# Serratia marcescens = assay: as above; format: cell-based; details: for Inhibition zone With CER: 50 μg/ml cephaloridine in agar
# Method: as §3
# Enterobacter sp. E-18 = assay: as above; format: cell-based; details: for Inhibition zone With CER: 50 μg/ml cephaloridine in agar
# Method: as §3
# Citrobacter freundii E-9 = assay: as above; format: cell-based; details: for Inhibition zone With CER: 50 μg/ml cephaloridine in agar
# Method: as §3
# [5] = test system: Staphylococcus aureus Smith; assay: Therapeutic activity of antibiotic PS-5 sodium salt in infected mice; format: in vivo; details: mice infected with pathogenic Gram-positive bacteria
# From the text: The therapeutic activity of the antibiotic PS-5 sodium salt was studied by treating mice intraperitoneally infected with 5×10^5 cells/mouse of Staphylococcus aureus Smith. Soon after the infection, an aqueous solution of the antibiotic PS-5 sodium salt was subcutaneously injected.
# [6] = 5 mg in 0.1 ml solvent at 20° C.
compound,measurement,setting,value
"CCC1C(=O)N2C(C(=O)OC(c3ccccc3)(c3ccccc3)c3ccccc3)=C(SCCNC(C)=O)CC12 (single isomer, unassigned) [Trityl PS-5]",MIC,[1],10 mg/L
same,MIC,Serratia marcescens S-18,10 mg/L
same,MIC,[2],8.7 mg/L
same,"Solubility in benzene, ethyl acetate, chloroform, methanol, ethanol, acetone, DMF and DMSO",[3]; [6],Highly soluble
same,"Solubility in water, n-hexane and petroleum ether",[3]; [6],Substantially insoluble
same,"Solubility in benzene, ethyl acetate, chloroform, acetone and dimethyl sulfoxide",[3]; general description,soluble
same,"Solubility in water, hexane and petroleum ether",[3]; general description,substantially insoluble
"CCC1C(=O)N2C(C(=O)O)=C(SCCNC(C)=O)CC12 (single isomer, unassigned) [Antibiotic PS-5]",remaining at 0.5 h,"[4]; pH 3, pH 3.0, 60° C. for 30 minutes, percent of control",0%
same,remaining at 0.5 h,"[4]; pH 4, pH 4.0, 60° C. for 30 minutes",0%
same,remaining at 0.5 h,"[4]; pH 5, pH 5.0, 60° C. for 30 minutes",9%
same,remaining at 0.5 h,"[4]; pH 6, pH 6.0, 60° C. for 30 minutes",79%
same,remaining at 0.5 h,"[4]; pH 7, pH 7.0, 60° C. for 30 minutes",76.5%
same,remaining at 0.5 h,"[4]; pH 8, pH 8.0, 60° C. for 30 minutes",88.5%
same,remaining at 0.5 h,"[4]; pH 9, pH 9.0, 60° C. for 30 minutes",82%
same,zone of inhibition at 79.5 µg/mL,"Proteus vulgaris P-5; P5, 18 h, PS-5 79.5 μg/ml, read-out: Inhibition zone Without CER",12.5 mm
same,zone of inhibition at 100 µg/mL,"Proteus vulgaris P-5; P5, 18 h, PS-5 100 μg/ml, read-out: Inhibition zone Without CER",13.7 mm
same,zone of inhibition at 159 µg/mL,"Proteus vulgaris P-5; P5, 18 h, PS-5 159 μg/ml, read-out: Inhibition zone Without CER",15.2 mm
same,zone of inhibition at 318 µg/mL,"Proteus vulgaris P-5; P5, 18 h, PS-5 318 μg/ml, read-out: Inhibition zone Without CER",18.5 mm
same,Inhibition zone With CER,Proteus vulgaris P-5; PS-5 79.5 μg/ml,21.8 mm
same,Inhibition zone With CER,Proteus vulgaris P-5; PS-5 100 μg/ml,22.0 mm
same,Inhibition zone With CER,Proteus vulgaris P-5; PS-5 159 μg/ml,24.0 mm
same,Inhibition zone With CER,Proteus vulgaris P-5; PS-5 318 μg/ml,25.2 mm
same,zone of inhibition at 79.5 µg/mL,"Serratia marcescens; 18 h, PS-5 79.5 μg/ml, read-out: Inhibition zone Without CER",14.8 mm
same,zone of inhibition at 100 µg/mL,"Serratia marcescens; 18 h, PS-5 100 μg/ml, read-out: Inhibition zone Without CER",16.8 mm
same,zone of inhibition at 159 µg/mL,"Serratia marcescens; 18 h, PS-5 159 μg/ml, read-out: Inhibition zone Without CER",17 mm
same,zone of inhibition at 318 µg/mL,"Serratia marcescens; 18 h, PS-5 318 μg/ml, read-out: Inhibition zone Without CER",21 mm
same,Inhibition zone With CER,Serratia marcescens; PS-5 79.5 μg/ml,22.3 mm
same,Inhibition zone With CER,Serratia marcescens; PS-5 100 μg/ml,23.3 mm
same,Inhibition zone With CER,Serratia marcescens; PS-5 159 μg/ml,24.8 mm
same,Inhibition zone With CER,Serratia marcescens; PS-5 318 μg/ml,26.1 mm
same,Inhibition zone With CER,Enterobacter sp. E-18; PS-5 79.5 μg/ml,17.6 mm
same,Inhibition zone With CER,Enterobacter sp. E-18; PS-5 100 μg/ml,18.0 mm
same,Inhibition zone With CER,Enterobacter sp. E-18; PS-5 159 μg/ml,19.4 mm
same,Inhibition zone With CER,Enterobacter sp. E-18; PS-5 318 μg/ml,21.9 mm
same,zone of inhibition at 79.5 µg/mL,"Enterobacter sp. E-18; SP.E18, 18 h, PS-5 79.5 μg/ml, read-out: Inhibition zone Without CER",15.1 mm
same,zone of inhibition at 100 µg/mL,"Enterobacter sp. E-18; SP.E18, 18 h, PS-5 100 μg/ml, read-out: Inhibition zone Without CER",16.1 mm
same,zone of inhibition at 159 µg/mL,"Enterobacter sp. E-18; SP.E18, 18 h, PS-5 159 μg/ml, read-out: Inhibition zone Without CER",18.2 mm
same,zone of inhibition at 318 µg/mL,"Enterobacter sp. E-18; SP.E18, 18 h, PS-5 318 μg/ml, read-out: Inhibition zone Without CER",21 mm
same,zone of inhibition at 79.5 µg/mL,"Citrobacter freundii E-9; E9, 18 h, PS-5 79.5 μg/ml, read-out: Inhibition zone Without CER",16 mm
same,zone of inhibition at 100 µg/mL,"Citrobacter freundii E-9; E9, 18 h, PS-5 100 μg/ml, read-out: Inhibition zone Without CER",17.4 mm
same,zone of inhibition at 159 µg/mL,"Citrobacter freundii E-9; E9, 18 h, PS-5 159 μg/ml, read-out: Inhibition zone Without CER",17.4 mm
same,zone of inhibition at 318 µg/mL,"Citrobacter freundii E-9; E9, 18 h, PS-5 318 μg/ml, read-out: Inhibition zone Without CER",22.5 mm
same,Inhibition zone With CER,Citrobacter freundii E-9; PS-5 79.5 μg/ml,19.4 mm
same,Inhibition zone With CER,Citrobacter freundii E-9; PS-5 100 μg/ml,21.6 mm
same,Inhibition zone With CER,Citrobacter freundii E-9; PS-5 159 μg/ml,22.3 mm
same,Inhibition zone With CER,Citrobacter freundii E-9; PS-5 318 μg/ml,24.6 mm
same,Therapeutic effect in infected mice,[5],marked therapeutic effect
